Reference: the supplement of paper PMC10307832

Experiments:
Experiment in all cases: relative viability (nuclei count vs DMSO), 5 days (fraction); higher = more cells survive
KN-93 + Vorinostat = compound: CN(C/C=C/C1=CC=C(C=C1)Cl)CC2=CC=CC=C2N(CCO)S(=O)(=O)C3=CC=C(C=C3)OC [KN-93] + O=C(CCCCCCC(=O)Nc1ccccc1)NO [Vorinostat] (partner 1 µM)
Summary of the method: (§1)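 Each reported value is a median over duplicate plates. It expresses relative viability: treated-well nuclei count divided by vehicle-well nuclei count. Lung cancer cell lines in 1536-well plates were dosed by pin tool a day after seeding, alone with one drug or with a fixed anchor-drug dose plus five library-drug doses (not always all listed) in √10 steps, and nuclei were counted after 5 days.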

KN-93 + OSI-027 = compound: CN(C/C=C/C1=CC=C(C=C1)Cl)CC2=CC=CC=C2N(CCO)S(=O)(=O)C3=CC=C(C=C3)OC [KN-93] + COc1cccc2cc(-c3nc([C@H]4CC[C@H](C(=O)O)CC4)n4ncnc(N)c34)[nH]c12 [OSI-027] (partner 0.5 µM)
Summary of the method: as §1

KN-93 + Luminespib = compound: CN(C/C=C/C1=CC=C(C=C1)Cl)CC2=CC=CC=C2N(CCO)S(=O)(=O)C3=CC=C(C=C3)OC [KN-93] + CCNC(=O)c1noc(-c2cc(C(C)C)c(O)cc2O)c1-c1ccc(CN2CCOCC2)cc1 [Luminespib] (partner 0.01 µM)
Summary of the method: as §1

KN-93 + Trametinib = compound: CN(C/C=C/C1=CC=C(C=C1)Cl)CC2=CC=CC=C2N(CCO)S(=O)(=O)C3=CC=C(C=C3)OC [KN-93] + CC(=O)Nc1cccc(-n2c(=O)n(C3CC3)c(=O)c3c(Nc4ccc(I)cc4F)n(C)c(=O)c(C)c32)c1 [Trametinib] (partner 0.02 µM)
Summary of the method: as §1

KN-93 + AZD7762 = compound: CN(C/C=C/C1=CC=C(C=C1)Cl)CC2=CC=CC=C2N(CCO)S(=O)(=O)C3=CC=C(C=C3)OC [KN-93] + NC(=O)Nc1cc(-c2cccc(F)c2)sc1C(=O)N[C@H]1CCCNC1 [AZD7762] (partner 0.2 µM)
Summary of the method: as §1

KN-93 + Dasatinib = compound: CN(C/C=C/C1=CC=C(C=C1)Cl)CC2=CC=CC=C2N(CCO)S(=O)(=O)C3=CC=C(C=C3)OC [KN-93] + Cc1nc(Nc2ncc(C(=O)Nc3c(C)cccc3Cl)s2)cc(N2CCN(CCO)CC2)n1 [Dasatinib] (partner 0.075 µM)
Summary of the method: as §1

KN-93 + Pemetrexed = compound: CN(C/C=C/C1=CC=C(C=C1)Cl)CC2=CC=CC=C2N(CCO)S(=O)(=O)C3=CC=C(C=C3)OC [KN-93] + Nc1nc2[nH]cc(CCc3ccc(C(=O)N[C@@H](CCC(=O)O)C(=O)O)cc3)c2c(=O)[nH]1 [Pemetrexed] (partner 0.2 µM)
Summary of the method: as §1

KN-93 + Decitabine = compound: CN(C/C=C/C1=CC=C(C=C1)Cl)CC2=CC=CC=C2N(CCO)S(=O)(=O)C3=CC=C(C=C3)OC [KN-93] + Nc1ncn([C@H]2C[C@H](O)[C@@H](CO)O2)c(=O)n1 [Decitabine] (partner 2 µM)
Summary of the method: as §1

KN-93 + Phenformin = compound: CN(C/C=C/C1=CC=C(C=C1)Cl)CC2=CC=CC=C2N(CCO)S(=O)(=O)C3=CC=C(C=C3)OC [KN-93] + N=C(N)NC(=N)NCCc1ccccc1 [Phenformin] (partner 250 µM)
Summary of the method: as §1

KN-93 + Tozasertib = compound: CN(C/C=C/C1=CC=C(C=C1)Cl)CC2=CC=CC=C2N(CCO)S(=O)(=O)C3=CC=C(C=C3)OC [KN-93] + Cc1cc(Nc2cc(N3CCN(C)CC3)nc(Sc3ccc(NC(=O)C4CC4)cc3)n2)n[nH]1 [Tozasertib] (partner 0.1 µM)
Summary of the method: as §1

KN-93 + Palbociclib = compound: CN(C/C=C/C1=CC=C(C=C1)Cl)CC2=CC=CC=C2N(CCO)S(=O)(=O)C3=CC=C(C=C3)OC [KN-93] + CC(=O)c1c(C)c2cnc(Nc3ccc(N4CCNCC4)cn3)nc2n(C2CCCC2)c1=O [Palbociclib] (partner 0.5 µM)
Summary of the method: as §1

KN-93 + Foretinib = compound: CN(C/C=C/C1=CC=C(C=C1)Cl)CC2=CC=CC=C2N(CCO)S(=O)(=O)C3=CC=C(C=C3)OC [KN-93] + COc1cc2c(Oc3ccc(NC(=O)C4(C(=O)Nc5ccc(F)cc5)CC4)cc3F)ccnc2cc1OCCCN1CCOCC1 [Foretinib] (partner 0.25 µM)
Summary of the method: as §1

KN-93 + Olaparib = compound: CN(C/C=C/C1=CC=C(C=C1)Cl)CC2=CC=CC=C2N(CCO)S(=O)(=O)C3=CC=C(C=C3)OC [KN-93] + O=C(c1cc(Cc2n[nH]c(=O)c3ccccc23)ccc1F)N1CCN(C(=O)C2CC2)CC1 [Olaparib] (partner 8 µM)
Summary of the method: as §1

KN-93 = compound: CN(C/C=C/C1=CC=C(C=C1)Cl)CC2=CC=CC=C2N(CCO)S(=O)(=O)C3=CC=C(C=C3)OC [KN-93]
Summary of the method: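 After an overnight hold at 37 °C, lung cancer cell lines in 1536-well plates were pinned with five library-drug doses (not always all listed), each √10 from the next, on vehicle-anchored plates. The cells stayed 5 days without fresh medium, then a one-step fix, permeabilisation and Hoechst stain preceded 4× imaging and MetaXpress nuclear counts. A plate passed only with control CV under 25% and at least one doubling. Viability is the median, over plates, of treated-well nuclei relative to vehicle-well nuclei.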

NCI-H2342
relative viability (KN-93 + Vorinostat; first compound 0.08 µM): 0.635
relative viability (KN-93 + Vorinostat; first compound 0.253 µM): 0.8
relative viability (KN-93 + Vorinostat; first compound 2.53 µM): 0.835
relative viability (KN-93 + Vorinostat; first compound 8 µM): 0.719
relative viability (KN-93 + OSI-027; first compound 0.08 µM): 0.587
relative viability (KN-93 + OSI-027; first compound 0.253 µM): 0.62
relative viability (KN-93 + OSI-027; first compound 2.53 µM): 0.625
relative viability (KN-93 + OSI-027; first compound 8 µM): 0.582
relative viability (KN-93 + Luminespib; first compound 0.08 µM): 0.623
relative viability (KN-93 + Luminespib; first compound 0.253 µM): 0.686
relative viability (KN-93 + Luminespib; first compound 2.53 µM): 0.913
relative viability (KN-93 + Luminespib; first compound 8 µM): 0.634
relative viability (KN-93 + Trametinib; first compound 0.08 µM): 0.744
relative viability (KN-93 + Trametinib; first compound 0.253 µM): 0.687
relative viability (KN-93 + Trametinib; first compound 2.53 µM): 0.94
relative viability (KN-93 + Trametinib; first compound 8 µM): 0.78
relative viability (KN-93 + AZD7762; first compound 0.08 µM): 0.472
relative viability (KN-93 + AZD7762; first compound 0.253 µM): 0.467
relative viability (KN-93 + AZD7762; first compound 2.53 µM): 0.539
relative viability (KN-93 + AZD7762; first compound 8 µM): 0.404
relative viability (KN-93 + Dasatinib; first compound 0.08 µM): 0.277
relative viability (KN-93 + Dasatinib; first compound 0.253 µM): 0.327
relative viability (KN-93 + Dasatinib; first compound 2.53 µM): 0.354
relative viability (KN-93 + Dasatinib; first compound 8 µM): 0.277
relative viability (KN-93 + Pemetrexed; first compound 0.08 µM): 0.735
relative viability (KN-93 + Pemetrexed; first compound 0.253 µM): 0.679
relative viability (KN-93 + Pemetrexed; first compound 2.53 µM): 0.859
relative viability (KN-93 + Pemetrexed; first compound 8 µM): 0.717
relative viability (KN-93 + Decitabine; first compound 0.08 µM): 0.675
relative viability (KN-93 + Decitabine; first compound 0.253 µM): 0.685
relative viability (KN-93 + Decitabine; first compound 2.53 µM): 0.757
relative viability (KN-93 + Decitabine; first compound 8 µM): 0.77
relative viability (KN-93 + Phenformin; first compound 0.08 µM): 0.536
relative viability (KN-93 + Phenformin; first compound 0.253 µM): 0.62
relative viability (KN-93 + Phenformin; first compound 2.53 µM): 0.671
relative viability (KN-93 + Phenformin; first compound 8 µM): 0.487
relative viability (KN-93 + Tozasertib; first compound 0.08 µM): 0.471
relative viability (KN-93 + Tozasertib; first compound 0.253 µM): 0.492
relative viability (KN-93 + Tozasertib; first compound 2.53 µM): 0.556
relative viability (KN-93 + Tozasertib; first compound 8 µM): 0.421
relative viability (KN-93 + Palbociclib; first compound 0.08 µM): 0.538
relative viability (KN-93 + Palbociclib; first compound 0.253 µM): 0.54
relative viability (KN-93 + Palbociclib; first compound 2.53 µM): 0.565
relative viability (KN-93 + Palbociclib; first compound 8 µM): 0.507
relative viability (KN-93 + Foretinib; first compound 0.08 µM): 0.918
relative viability (KN-93 + Foretinib; first compound 0.253 µM): 0.962
relative viability (KN-93 + Foretinib; first compound 2.53 µM): 1.06
relative viability (KN-93 + Foretinib; first compound 8 µM): 0.902
relative viability (KN-93 + Olaparib; first compound 0.08 µM): 0.4
relative viability (KN-93 + Olaparib; first compound 0.253 µM): 0.423
relative viability (KN-93 + Olaparib; first compound 2.53 µM): 0.446
relative viability (KN-93 + Olaparib; first compound 8 µM): 0.352
relative viability (KN-93; 0.08 µM): 0.911
relative viability (KN-93; 0.253 µM): 0.959
relative viability (KN-93; 2.53 µM): 0.977
relative viability (KN-93; 8 µM): 0.818

SW 900
relative viability (KN-93 + Vorinostat; first compound 0.08 µM): 0.592
relative viability (KN-93 + Vorinostat; first compound 0.253 µM): 0.333
relative viability (KN-93 + Vorinostat; first compound 2.53 µM): 0.624
relative viability (KN-93 + Vorinostat; first compound 8 µM): 0.192
relative viability (KN-93 + OSI-027; first compound 0.08 µM): 0.571
relative viability (KN-93 + OSI-027; first compound 0.253 µM): 0.438
relative viability (KN-93 + OSI-027; first compound 2.53 µM): 0.624
relative viability (KN-93 + OSI-027; first compound 8 µM): 0.411
relative viability (KN-93 + Luminespib; first compound 0.08 µM): 0.166
relative viability (KN-93 + Luminespib; first compound 0.253 µM): 0.178
relative viability (KN-93 + Luminespib; first compound 2.53 µM): 0.145
relative viability (KN-93 + Luminespib; first compound 8 µM): 0.182
relative viability (KN-93 + Trametinib; first compound 0.08 µM): 0.93
relative viability (KN-93 + Trametinib; first compound 0.253 µM): 0.835
relative viability (KN-93 + Trametinib; first compound 2.53 µM): 1.04
relative viability (KN-93 + Trametinib; first compound 8 µM): 0.643
relative viability (KN-93 + AZD7762; first compound 0.08 µM): 0.669
relative viability (KN-93 + AZD7762; first compound 0.253 µM): 0.628
relative viability (KN-93 + AZD7762; first compound 2.53 µM): 0.684
relative viability (KN-93 + AZD7762; first compound 8 µM): 0.522
relative viability (KN-93 + Dasatinib; first compound 0.08 µM): 0.609
relative viability (KN-93 + Dasatinib; first compound 0.253 µM): 0.568
relative viability (KN-93 + Dasatinib; first compound 2.53 µM): 0.65
relative viability (KN-93 + Dasatinib; first compound 8 µM): 0.48
relative viability (KN-93 + Pemetrexed; first compound 0.08 µM): 0.522
relative viability (KN-93 + Pemetrexed; first compound 0.253 µM): 0.517
relative viability (KN-93 + Pemetrexed; first compound 2.53 µM): 0.491
relative viability (KN-93 + Pemetrexed; first compound 8 µM): 0.47
relative viability (KN-93 + Decitabine; first compound 0.08 µM): 0.443
relative viability (KN-93 + Decitabine; first compound 0.253 µM): 0.427
relative viability (KN-93 + Decitabine; first compound 2.53 µM): 0.452
relative viability (KN-93 + Decitabine; first compound 8 µM): 0.517
relative viability (KN-93 + Phenformin; first compound 0.08 µM): 0.547
relative viability (KN-93 + Phenformin; first compound 0.253 µM): 0.474
relative viability (KN-93 + Phenformin; first compound 2.53 µM): 0.656
relative viability (KN-93 + Phenformin; first compound 8 µM): 0.554
relative viability (KN-93 + Tozasertib; first compound 0.08 µM): 0.529
relative viability (KN-93 + Tozasertib; first compound 0.253 µM): 0.544
relative viability (KN-93 + Tozasertib; first compound 2.53 µM): 0.598
relative viability (KN-93 + Tozasertib; first compound 8 µM): 0.368
relative viability (KN-93 + Palbociclib; first compound 0.08 µM): 0.539
relative viability (KN-93 + Palbociclib; first compound 0.253 µM): 0.592
relative viability (KN-93 + Palbociclib; first compound 2.53 µM): 0.509
relative viability (KN-93 + Palbociclib; first compound 8 µM): 0.471
relative viability (KN-93 + Foretinib; first compound 0.08 µM): 0.851
relative viability (KN-93 + Foretinib; first compound 0.253 µM): 0.942
relative viability (KN-93 + Foretinib; first compound 2.53 µM): 1.02
relative viability (KN-93 + Foretinib; first compound 8 µM): 0.762
relative viability (KN-93 + Olaparib; first compound 0.08 µM): 1.13
relative viability (KN-93 + Olaparib; first compound 0.253 µM): 0.766
relative viability (KN-93 + Olaparib; first compound 2.53 µM): 1.13
relative viability (KN-93 + Olaparib; first compound 8 µM): 0.559
relative viability (KN-93; 0.08 µM): 0.9
relative viability (KN-93; 0.253 µM): 0.704
relative viability (KN-93; 2.53 µM): 1
relative viability (KN-93; 8 µM): 0.508
